Experimental data published in PubChem BioAssay (NCI).
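Protocol summary: plate cells (96-well), add compound at 5 concentrations, incubate 48 h, interpolate endpoints linearly. GI50 is the concentration that inhibits growth by half. TGI is the concentration that stops growth completely.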

How the values were obtained:
Test in all cases: DTP human tumour cell line panel, 48 h
BT-549 breast = tested on: BT-549 breast
CAKI-1 renal = tested on: CAKI-1 renal
HCC-2998 colon = tested on: HCC-2998 colon
MOLT-4 leukemia = tested on: MOLT-4 leukemia
NCI-H226 lung = tested on: NCI-H226 lung
NCI-H23 lung = tested on: NCI-H23 lung
NCI/ADR-RES ovarian = tested on: NCI/ADR-RES ovarian
OVCAR-5 ovarian = tested on: OVCAR-5 ovarian
U251 CNS = tested on: U251 CNS
UACC-62 melanoma = tested on: UACC-62 melanoma

Compound | GI50 (BT-549 breast) [µM] | TGI (BT-549 breast) [µM] | GI50 (CAKI-1 renal) [µM] | TGI (CAKI-1 renal) [µM] | GI50 (HCC-2998 colon) [µM] | TGI (HCC-2998 colon) [µM] | GI50 (MOLT-4 leukemia) [µM] | TGI (MOLT-4 leukemia) [µM] | GI50 (NCI-H226 lung) [µM] | TGI (NCI-H226 lung) [µM] | GI50 (NCI-H23 lung) [µM] | TGI (NCI-H23 lung) [µM] | GI50 (NCI/ADR-RES ovarian) [µM] | TGI (NCI/ADR-RES ovarian) [µM] | GI50 (OVCAR-5 ovarian) [µM] | TGI (OVCAR-5 ovarian) [µM] | GI50 (U251 CNS) [µM] | TGI (U251 CNS) [µM] | GI50 (UACC-62 melanoma) [µM] | TGI (UACC-62 melanoma) [µM]
Cc1ccnc2c1NC(=O)c1cccnc1N2C1CC1 | > 100 | > 100 | > 100 | > 100 | > 100 | > 100 | > 100 | > 100 | > 100 | > 100 | > 100 | > 100 | > 100 | > 100 | > 100 | > 100 | > 100 | > 100 | > 100 | > 100
Nc1ccc(-c2ccc(-c3nc4ccccc4[nH]3)cc2)cc1 | 13.2 | > 61.6 |  | > 54.7 | 0.105 | 0.438 | 9.94 | > 58.2 | 4.26 | 40.9 | 10.6 | > 90.6 | 21.3 | > 76.3 | > 75.9 | > 100 | 11.4 | 44.5 | 0.61 | 3.61
C[C@]12CC[C@H]3[C@@H](C[C@@H]4SC(Nc5cccc(F)c5)=N[C@@]45CC(=O)CC[C@]35C)[C@@H]1CCC2=O | 1.54 | 3.61 | 1.99 | 5.73 | 3.55 | 14.6 | 1.68 | 28.3 | 2.35 | 5.7 | 2.27 | 9.08 | 2.81 | 17.2 | 2.73 | 18 | 1.59 | 3.68 | 1.54 | 3.12
CS(=O)(=O)c1ccc(C(F)(F)F)cc1NC(=O)Nc1cnc(Oc2ccc(-c3cc(Cl)cnc3N)cc2)nc1 | 2.26 | 6.5 | 2.98 | 22.4 | 2.79 | 8.72 | 2.12 | 6.53 | 2.75 | 26.3 | 2.56 | 7.69 | 2.92 | > 31 | 3.1 | 15.9 | 2.56 | 12.3 | 1.82 | 4.72
COCCOC(C)C(/C=N/NC(N)=S)=N/NC(N)=S (centres undefined) | > 100 | > 100 | > 100 | > 100 | > 100 | > 100 | 0.0558 | > 100 | > 100 | > 100 | > 100 | > 100 | 0.0732 | > 100 | > 100 | > 100 | > 100 | > 100 | > 100 | > 100
O=C(c1cccs1)c1c(C(F)(F)F)n([O-])c2cc(F)c(F)cc2[n+]1=O | 1.91 | 3.24 | 1.25 | 4 | 6.65 | 9.07 | 0.498 | 7.84 | 3.62 | 7.47 | 2.26 | 4.94 | 2.1 | 4.77 | 3.57 | 5.58 | 1.02 | 2.72 | 1.54 | 3.58
N#CC1=C(N)Oc2c(sc3c(F)cccc23)C1c1ccc([N+](=O)[O-])cc1 (centres undefined) | 0.242 | 1.3 | 0.249 | 1.66 | 0.307 | 1.46 | 0.132 | 1.46 | 0.376 | 1.93 | 0.284 | 1.46 | 0.0589 | 0.734 | 0.552 | 2.26 | 0.153 | 1.21 | 0.0863 | 1.33
CCOC(=O)c1c(C)c2c(n1C)CSc1cc(S(=O)(=O)c3ccccc3)c(=O)[nH]c1-2 | 21.1 | > 100 | 21.1 | > 100 | 35.2 | > 100 | 11.2 | 98.6 | 23.9 | > 100 | 28.6 | > 100 | 22.6 | > 100 | 45.6 | > 100 | 28.4 | > 100 | 14.2 | 69.1
C=CCSc1n[nH]c(-c2cccs2)n1 | > 100 | > 100 | > 100 | > 100 | > 100 | > 100 | > 100 | > 100 | > 100 | > 100 | > 100 | > 100 | > 100 | > 100 | > 100 | > 100 | > 100 | > 100 | > 100 | > 100
